Assay results as given in patent US7045526B2, “Substituted 4-amino-2-aryl-tetrahydroquinazolines, their preparation, their use and pharmaceutical preparations comprising them” (Sanofi-Aventis Deutschland GmbH, priority 1999, dated 2006).

Biological target: T1, soluble guanylate cyclase (sGC) (Bos taurus, UniProt P16068+P19687)
T1 construct: The sGC employed had been isolated from bovine lung; from tissue; host or cells: bovine lung
T1 sequence (P16068 1-619): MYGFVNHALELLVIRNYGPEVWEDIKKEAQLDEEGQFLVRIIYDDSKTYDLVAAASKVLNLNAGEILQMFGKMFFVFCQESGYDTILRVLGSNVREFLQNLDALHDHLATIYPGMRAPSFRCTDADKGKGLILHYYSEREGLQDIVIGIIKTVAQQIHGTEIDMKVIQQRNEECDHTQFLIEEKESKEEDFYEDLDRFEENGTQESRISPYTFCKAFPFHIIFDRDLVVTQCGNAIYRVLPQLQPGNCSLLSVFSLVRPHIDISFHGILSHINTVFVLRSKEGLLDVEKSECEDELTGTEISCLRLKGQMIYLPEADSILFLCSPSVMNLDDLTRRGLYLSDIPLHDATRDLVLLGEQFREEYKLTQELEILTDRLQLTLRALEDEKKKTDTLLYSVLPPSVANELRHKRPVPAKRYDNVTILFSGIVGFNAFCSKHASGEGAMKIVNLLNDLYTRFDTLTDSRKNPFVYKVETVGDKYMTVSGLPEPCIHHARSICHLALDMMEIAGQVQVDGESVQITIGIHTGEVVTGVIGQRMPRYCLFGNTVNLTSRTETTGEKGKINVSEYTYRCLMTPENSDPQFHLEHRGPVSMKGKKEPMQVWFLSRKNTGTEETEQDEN
T1 sequence (P19687 1-691): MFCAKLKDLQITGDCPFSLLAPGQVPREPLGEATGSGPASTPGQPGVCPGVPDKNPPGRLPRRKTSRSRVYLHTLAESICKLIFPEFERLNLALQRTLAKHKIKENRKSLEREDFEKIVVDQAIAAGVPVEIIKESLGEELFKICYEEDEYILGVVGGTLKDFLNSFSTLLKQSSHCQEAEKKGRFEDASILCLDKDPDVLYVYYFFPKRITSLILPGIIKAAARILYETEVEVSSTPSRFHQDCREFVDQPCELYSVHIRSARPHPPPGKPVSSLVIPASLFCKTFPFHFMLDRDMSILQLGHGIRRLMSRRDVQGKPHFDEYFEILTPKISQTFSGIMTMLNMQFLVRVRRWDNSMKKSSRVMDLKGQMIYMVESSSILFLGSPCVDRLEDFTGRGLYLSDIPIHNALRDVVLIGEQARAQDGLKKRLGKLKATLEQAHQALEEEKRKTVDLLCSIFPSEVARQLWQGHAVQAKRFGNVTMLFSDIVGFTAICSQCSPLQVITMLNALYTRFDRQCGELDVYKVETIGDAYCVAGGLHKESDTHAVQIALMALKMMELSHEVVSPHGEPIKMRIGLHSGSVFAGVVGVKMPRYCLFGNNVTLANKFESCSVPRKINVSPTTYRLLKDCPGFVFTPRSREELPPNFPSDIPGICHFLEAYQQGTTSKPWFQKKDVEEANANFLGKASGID
Assay: Activation of soluble guanylate cyclase (cGMP enzyme immunoassay)
Assay type: biochemical
Conditions: test substance 50 μM; sGC isolated from bovine lung; 37° C., 15 to 20 minutes; [cGMP]test substance/[cGMP]control (basal enzyme activity)
Method: Activation of Soluble Guanylate Cyclase
The activation of soluble guanylate cyclase (sGC), which catalyzes the conversion of guanosine triphosphate (GTP) to cyclic guanosine monophosphate (cGMP) and pyrophosphate, by the compounds according to the invention was quantified with the aid of an enzyme immunoassay (EIA) from Amersham. For this, the test substances were first incubated with sGC in microtiter plates and then the quantity of the resulting cGMP was determined.
The sGC employed had been isolated from bovine lung (see Methods in Enzymology, Volume 195, p. 377). The test solutions (100 μl per well) contained 50 mM triethanolamine (TEA) buffer (pH 7.5), 3 mM MgCl2, 3 mM reduced glutathione (GSH), 0.1 mM GTP, 1 mM 3-isobutyl-1-methylxanthine (IBMX), suitably diluted enzyme solution and the test substance or, in the control experiments, solvent. […] The absorption of the samples was measured at 450 nm (reference wavelength 620 nm) in a microtiter plate reading apparatus. The cGMP concentration was determined by means of a calibration curve, which was obtained under the same experimental conditions. The activation of the sGC by a test substance is given as n-fold stimulation of the basal enzyme activity which was found in the control experiments (with solvent instead of test substance), calculated according to the formula: n-fold stimulation=[cGMP]test substance/[cGMP]control.

n-fold stimulation (at c = 50 μM): 28 n-fold
Structure (SMILES): CS(=O)(=O)O.O[C@H]1CC[C@H](Nc2nc(-c3ccc(Cl)cc3)nc3c2CCCC3)CC1 [Example 26, 2-(4-Chlorophenyl)-4-(trans-4-hydroxycyclohexylamino)-5,6,7,8-tetrahydroquinazoline methanesulfonic acid salt]
